Where no end group is shown, it is not given here.
What was measured:
[1] = tested on: spleen cells of adult thymectomized mice; test: rosette inhibition assay (azathioprine-sensitive rosette assay); type: cell-based; conditions: restoration of azathioprine sensitivity in rosette formation
Method: The desacetylthymosin α1 prepared and characterized above was compared with thymosin α1, prepared on both benzyhydrylamine and PAM resins in the rosette inhibition assay (azathioprine-sensitive rosette assay) as described by Dardenne and Bach in "The Biological Action of Thymic Hormones" (van Bekkum, D. K., Ed.), page 235 (Kooyker Scientific Publications, Rotterdam, 1975). In this assay the peptides are tested for ability to restore azathioprine sensitivity in rosette formation by spleen cells of adult thymectomized mice.

[2] = tested on: T-cell differentiation and function; conditions: several in vitro and in vivo assay systems; cited from earlier work

SDAAVDTSSEITTKDLKEKKEVVEEAEN [desacetylthymosin α1, N^α -desacetylthymosin α1]
activity in rosette inhibition assay compared with each other and with natural thymosin α1 [1]: equally active

thymosin α1 (SDAAVDTSSEITTKDLKEKKEVVEEAEN; ends and bridges not checked; UniProt P06454 2-29, looked up) [synthetic thymosin α1 prepared on benzhydrylamine and PAM resins; component of thymosin fraction 5]
activity in rosette inhibition assay compared with each other and with natural thymosin α1 [1]: equally active | activity relative to fraction 5 [2]: 10 to 1000 times

Source: patent publication US4560676A, “N^α -desacetylthymosinα1 and process” (The Rockefeller University, priority 1981, dated 1985)
